# Data taken from patent US20070264212A1, “Skin Lightening Method” (priority 2004, published 2007).
# Entries after “also recorded” stand apart in the source; their conditions may differ.
# Key:
# Format in all cases: in vivo, human
# [1] = tested on: skin tone of adult test subject, skin type IV (moderate brown), Fitzpatrick classification; assay: Skin tone lightening by oral MSM supplement taken twice daily (Table I); conditions: 3 months
# Procedure: A first procedure for performing step 102 is described in Table I below, at various dosage levels and application periods. The application periods indicated in the table were carried out in immediately successive periods on the same individual. Exemplary results are also shown in Table I, for an adult test subject of approximately 45 kg weight having a skin type IV (moderate brown) according to the Fitzpatrick skin type classification. […] Because of variation between individuals, the effective amount of MSM that should be delivered to cause a noticeable change in skin tone may vary somewhat. For example, dosage should be calculated based on body weight. Based on the disclosure herein, one of ordinary skill should be able to determine an effective dosage regimen without undue experimentation. […] For the tested individual, the optimal dose for maximum skin lightening appears to be between 2000 and 4000 mg (45 to 90 mg/kg) daily.
# [2] = tested on: skin tone of adult test subject, skin type IV (moderate brown), Fitzpatrick classification; assay: Skin tone lightening by oral MSM plus topical application of MSM in water solution (Table II); conditions: once daily, 3 months
# Procedure: In an alternative embodiment, step 102 may be performed by oral delivery of MSM in combination with a topical application. […] Exemplary results are also shown in […], for the same test subject reported in Table I. Each row of the table indicates result for a procedure that was performed during one of successive 3-month periods. For each procedure described in Table II, MSM delivered was in an effective amount for the reported test subject. Again, some variation in effective amount should be expected between individuals. For the procedures described in Table II, a topical application may be prepared by dissolving the indicated amount of MSM in water to provide an approximately 15% by weight solution. For example, one tablespoon of MSM may be dissolved in 8 to 10 tablespoons of warm water to prepare the solution indicated in the first row. Then, the solution may be applied to the skin, which may be kept moistened with the solution for a period of approximately ten minutes or longer. The solution may be applied cover the entire body, or only in areas where greater lightening of skin tone is desired. The indicated application may be performed once daily for approximately a three-month period. […] Suitable formulations for transdermal patches to deliver MSM should be readily ascertained by one of ordinary skill.
# [3] = tested on: skin tone of test subject having a natural skin tone of Fitzpatrick type IV; assay: Skin tone lightening by oral and topical MSM in combination with an exfoliate; conditions: oral and topical MSM plus exfoliate (e.g. twice-weekly 30% lactic or glycolic acid rinse)
# Text: Referring again to FIG. 1, at step 104, a skin lightening effect may be enhanced by application of an exfoliant during the MSM treatment period. The exfoliant is believed to cause more darkly pigmented cells that formed during a pre-treatment period to be more rapidly shed. […] For example, the treatment regimen described in the second row of Table III may be combined with a twice-weekly rinse in an exfoliate solution. A suitable exfoliate solution may comprise, for example, a 30% solution of lactic or glycolic acid. A lactic acid solution may be more suitable for an individual with sensitive skin. In a test using an exfoliate in combination with oral and topical application, the test subject having a natural skin tone of Fitzpatrick type IV achieved and maintained a class III tone overall, with class II tone in constitutive skin areas.
# [4] = oral MSM 2000 mg twice daily (4000 mg daily), successive period, same subject
structure (smiles),measurement,setting,value
"CS(C)(=O)=O [MSM, methyl sulfonyl methane]",Results (observed skin tone),"[1]; oral MSM 100 mg twice daily (200 mg daily), adult person ~45 kg, skin type IV",No Change
same,Results (observed skin tone),"[1]; oral MSM 250 mg twice daily (500 mg daily), successive period, same subject",No Change
same,Results (observed skin tone),"[1]; oral MSM 500 mg twice daily (1000 mg daily), successive period, same subject",No Change
same,"Results (observed skin tone), constitutive skin such as under the arms, inner thighs, chests and nipples","[1]; oral MSM 1000 mg twice daily (2000 mg daily), successive period, same subject",Light Brown (skin type III)
same,"Results (observed skin tone), constitutive skin",[1]; [4],Olive (skin type II) observed in
same,"Results (observed skin tone), facultative skin such as the neck, face, forearms",[1]; [4],Light Brown (skin type III)
same,"Results, freckles on face",[1]; [4],Freckles on face also lightened
same,Results (observed skin tone),"[1]; oral MSM 3000 mg twice daily (6000 mg daily), successive period, same subject",did not cause noticeable lightening relative to the 4000 mg regimen; also recorded: Same results as 4000 mg per day
same,"Results (observed skin tone), total body complexion","[2]; oral 2000 mg twice daily (4000 mg daily) + topical 1 Tablespoon (10,000 mg) MSM in water, approx. 15% solution",Light olive (skin type III)
same,"Results (observed skin tone), elsewhere than constitutive skin","[2]; oral 2000 mg twice daily (4000 mg daily) + topical 2 Tablespoons (20,000 mg) MSM in water",light olive; elsewhere light olive
same,"Skin tone achieved and maintained, constitutive skin areas",[3],class II
same,"Skin tone achieved and maintained, overall",[3],class III
